According to patent US20230293539A1, “MLL1-WDR5 PROTEIN-PROTEIN INTERACTION INHIBITOR COMPOUNDS AND USES THEREOF” (HUYABIO International, LLC, priority 2022, published 2023):

Legend:
MV 411 cells = experiment: Cell Viability Assay (CellTiter-Glo); assay type: cell-based; conditions: Homo sapiens, MV4-11, 72 hours, read-out: IC50 (anti-proliferative activity against leukemia cells)
Procedure: Cell lines and maintenance: All cell lines (MV 411) used for in vitro and in vivo studies were supplied as part of Wuxi AppTech cell bank. Cell lines were maintained in a medium supplemented with 10% heat inactivated fetal bovine serum at 37° C., in an atmosphere of 5% CO2, in air. The tumor cells were routinely subcultured twice weekly. The cells growing in an exponential growth phase were used for the in vitro cell potency and in vivo efficacy studies.
EXAMPLE 1: Cell Viability Assay: For cell cytotoxicity assays, 2000 cells/well were plated in 384-well plates. Twenty four hours after plating, cells were treated with inhibitors at the indicated compound concentrations. On Day 3 (72 hours), cells were lysed with CellTiter-Glo® Luminescent Cell Viability Assay reagent (Promega) and luminescence was read using the EnVision Multi-plate reader. To calculate IC50, a dose-response curve is generated using a nonlinear regression model with a sigmoidal dose response. The formula of surviving rate is shown below. IC50 values were automatically generated by GraphPad Prism 8.0. See FIG. 1A and FIG. 1B and Tables 3 and 4.

WDR5 = WDR5 (Homo sapiens, UniProt P61964); experiment: WDR5 TR-FRET Assay; assay type: binding; conditions: 5 nM WDR5 protein, 10 nM peptide, read-out: IC50 (MLL1-WDR5 PPI inhibitory activity)
Procedure: WDR5 TR-FRET Assay Procedure: Stock compounds were transferred to the assay plate by Echo Liquid Handler. Reactions were performed in the assay buffer (1×PBS, 300 mM NaCl, 0.5 mM TCEP, 0.1% CHAPS) containing 5 nM WDR5 protein, 10 nM peptide (Ac-ARTEVHLRKS-[Ahx-Ahx][C]-Alexa Fluor 488-NH2) and 0.25 nM Tb-anti His antibody (Tb-Ab) in 384-well white plate (PerkinElmer) with a final volume of 20 μl. Compounds were incubated with WDR5 protein for 30 min at room temperature. Plates were covered, protected from light and incubated for 60 min. at room temperature after adding the peptide and Tb-Ab. EnVision Multimode Plate Reader (PerkinElmer) was used for the TR-FRET assay with excitation wavelength at 340 nm and emission wavelength at 495 and 520 nm. The ratio of the 520/495 nm wavelengths were used to assess the degree of the FRET signal. IC50 was calculated by fitting the inhibition data using XLfit software to sigmoidal dose-response model.

[1] = Compound formulation stability assay; assay type: physicochemical; conditions: 10 mg/mL in 10% DMSO/10% solutol HS 15/80% water, 2-8° C.
Procedure: Compound formulation stability assay: Test articles were formulated in 10% DMSO/10% solutol HS 15/80% water and stored at 4° C. Formulated compounds were analyzed by a HPLC-UV method for actual concentrations and % remaining on Day 1, 4 and 7 after formulation to determine the stability of the formulated test article. The HPLC system was equipped with Shimadzu LC-20 high-performance liquid chromatograph, SIL-20AC auto sampler, LC-20AB pump and SPD-M20A detector. A Waters XBridge C18 (4.6*100 mm) column was applied for the separation. […]

Mouse PK (oral) = assay type: in vivo, C57/B16 mice; conditions: for Cmax: plasma; for AUC(0-t) / half-life: C57/B16, plasma
Procedure: Mouse PK: Animals were dosed with a single intravenous bolus or oral gavage administration in naïve C57/B16 mice (Beijing Vital River Laboratory Animal Co., LTD). Blood samples were collected at the respective sampling time points. The quantification of compound concentrations in mouse or rat plasma was quantified using LC-MS/MS method. Plasma concentration versus time data was analyzed by non-compartmental mode approaches using the WinNonlin software program (version 6.3 or above, Pharsight). Pharmacokinetic parameters, including C0 (initial concentration after drug administration), […], Vdss (volume of distribution), Cmax (maximum peak concentration of the drug), Tmax (time required to reach Cmax) T1/2 (time required for drug concentration to decrease by 50% after administration), AUC0-last (area under the concentration-time curve from dosing time t=0 to the time of the last measured concentration), AUC0-inf (total drug exposure across time), MRT0-last (mean residence time from dosing time t=0 to the time of the last measured concentration), MRT0-inf f (mean residence time of total drug exposure), bioavailability (%) (the percentage (or the fraction F) of an administered drug dose that reaches the systemic circulation) for IV and PO groups were calculated. See Table 7 and FIGS. 6A, 6B, 6C and 6D.

Liver S9 stability assay [2] = assay type: in vitro ADME, human; conditions: for half-life at 1 μM / microsomal CLint at 1 μM: Human liver S9; for % Remaining after 60 min incubation: Human liver S9, 1 μM, 5 mM GSH, 37° C.
Procedure: (§1) Liver S9 stability assay: Test compounds (1 μM) and positive control were incubated with 5 mM GSH and liver S9 (1 mg protein/ml) from multiple species (including human, monkey, dog, rat and mouse) at 37° C. at 0, 10, 30, and 60 minutes in duplicate. After adding the stop solution, 100 μL of supernatant were analyzed by LC-MS/MS. The % remaining of test compound, T1/2 (min), and CLint (μL/min/mg) were calculated and were reported.

Liver S9 stability assay [3] = assay type: in vitro ADME, rat; conditions: for half-life at 1 μM / microsomal CLint at 1 μM: Rat liver S9; for % Remaining after 60 min incubation: Rat liver S9, 1 μM, 5 mM GSH, 37° C.
Procedure: as §1

Liver S9 stability assay [4] = assay type: in vitro ADME, dog; conditions: for half-life at 1 μM / microsomal CLint at 1 μM: Dog liver S9; for % Remaining after 60 min incubation: Dog liver S9, 1 μM, 5 mM GSH, 37° C.
Procedure: as §1

Liver S9 stability assay [5] = assay type: in vitro ADME, mouse; conditions: for half-life at 1 μM / microsomal CLint at 1 μM: Mouse liver S9; for % Remaining after 60 min incubation: Mouse liver S9, 1 μM, 5 mM GSH, 37° C.
Procedure: as §1

[6] = WBS (whole blood stability) assay; assay type: in vitro ADME; conditions: for % Remaining after 60 min incubation: 2 μM, 37° C.
Procedure: WBS (whole blood stability) assay: The blood samples were collected freshly from multiple species including human, monkey, dog, rat and mouse. 2 μM of test compound and positive control were incubated with the whole blood at 37° C. at 0, 10, 30, 60, and 120 minutes in duplicate. After adding the stop solution, 200 μL of supernatant were analyzed by LC-MS/MS. The % remaining of test compound and T1/2 (min) were calculated and reported.

Dog PK (oral) = assay type: in vivo, Beagle dogs; conditions: for Cmax / AUC(0-t) / half-life: Beagle, plasma
Procedure: Dog PK: Fasted or fed non-naïve Beagle dogs (Marshall Bioresources, Beijing, China) were administered a single intravenous bolus or oral gavage administration of test compounds at respective doses. Blood samples for plasma isolation were collected from a peripheral vessel, from restrained, non-sedated animals at the respective sampling time points. The quantification of compound concentrations in dog plasma was quantified using LC-MS/MS method. Plasma concentration versus time data was analyzed by non-compartmental mode approaches using the WinNonlin software program (version 6.3 or above, Pharsight). Pharmacokinetic parameters, including C0, CL, Vdss, Cmax, Tmax T1/2, AUC0-last, AUC0-inf, MRT0-last, MRT0-inf, bioavailability (%) for IV and PO groups were calculated. See FIGS. 9A, […], 9C and FIGS. 10A, 10B, 10C, and 10D.

C[C@H]1CN(c2cc(F)c(-c3cnc(N4CCOCC4)nc3)cc2Nc2ncnc(Cl)c2N)CCN1C [DDO-2213_020, (S)-6-chloro-N4-(2-(3,4-dimethylpiperazin-1-yl)-4-fluoro-5-(2-morpholinopyrimidin-5-yl)phenyl)pyrimidine-4,5-diamine]
IC50 (MV 411 cells): 5.81 µM | IC50 (WDR5): 0.00766 µM | Accuracy % (Day 0) [1]: 89.8% | Formulation Appearance (Day 0) [1]: clear solution | Remaining % (Day 0) [1]: 100% | Accuracy % (Day 1) [1]: 91.6% | Formulation Appearance (Day 1) [1]: clear solution | Remaining % (Day 1) [1]: 102% | Accuracy % (Day 4) [1]: 92.0% | Formulation Appearance (Day 4) [1]: clear solution | Remaining % (Day 4) [1]: 100% | Accuracy % (Day 7) [1]: 95.5% | Formulation Appearance (Day 7) [1]: clear solution | Remaining % (Day 7) [1]: 104% | F (Mouse PK (oral); 10 mpk): 61.5% | F (Mouse PK (oral); 30 mpk): 107.0% | Cmax (Mouse PK (oral); C57/B16, 10 mg/kg, 10 mpk): 1670 nM | Cmax (Mouse PK (oral); C57/B16, 30 mg/kg, 30 mpk): 5470 nM | AUC(0-t) (Mouse PK (oral); 10 mg/kg, 10 mpk): 7.1 µM·h | half-life (Mouse PK (oral); 10 mg/kg, 10 mpk): 3.3 h | AUC(0-t) (Mouse PK (oral); 30 mg/kg, 30 mpk): 37 µM·h | half-life (Mouse PK (oral); 30 mg/kg, 30 mpk): 2.7 h | half-life at 1 μM (Liver S9 stability assay [2]): > 2.42 h | microsomal CLint at 1 μM (Liver S9 stability assay [2]): < 4.8 µL/min/mg | % Remaining after 60 min incubation (Liver S9 stability assay [2]): 92.1% | half-life at 1 μM (Liver S9 stability assay [3]): > 2.42 h | microsomal CLint at 1 μM (Liver S9 stability assay [3]): < 4.8 µL/min/mg | % Remaining after 60 min incubation (Liver S9 stability assay [3]): 88.8% | half-life at 1 μM (Liver S9 stability assay [4]): > 2.42 h | microsomal CLint at 1 μM (Liver S9 stability assay [4]): < 4.8 µL/min/mg | % Remaining after 60 min incubation (Liver S9 stability assay [4]): 78% | half-life at 1 μM (Liver S9 stability assay [5]): > 2.42 h | microsomal CLint at 1 μM (Liver S9 stability assay [5]): < 4.8 µL/min/mg | % Remaining after 60 min incubation (Liver S9 stability assay [5]): 93.4% | half-life at 2 μM ([6]; Dog whole blood): > 2.41 h | % Remaining after 60 min incubation ([6]; Dog whole blood): 101% | half-life at 2 μM ([6]; Human whole blood): 5 h | % Remaining after 60 min incubation ([6]; Human whole blood): 103% | half-life at 2 μM ([6]; Mouse whole blood): > 2.41 h | % Remaining after 60 min incubation ([6]; Mouse whole blood): 104% | half-life at 2 μM ([6]; Rat whole blood): > 2.41 h | % Remaining after 60 min incubation ([6]; Rat whole blood): 1%

C[C@@H]1CN(c2ncc(-c3cc(Nc4ncnc(Cl)c4N)c(N4CCN(C)[C@@H](C)C4)cc3F)cn2)C[C@H](C)O1 [DDO-2213_023, 6-chloro-N4-(5-(2-((2S,6R)-2,6-dimethylmorpholino)pyrimidin-5-yl)-2-((S)-3,4-dimethylpiperazin-1-yl)-4-fluorophenyl)pyrimidine-4,5-diamine]
IC50 (MV 411 cells): 4.06 µM | Accuracy % (Day 0) [1]: 89.9% | Formulation Appearance (Day 0) [1]: clear solution | Remaining % (Day 0) [1]: 100% | Accuracy % (Day 1) [1]: 81.3% | Formulation Appearance (Day 1) [1]: clear solution | Remaining % (Day 1) [1]: 90.4% | Accuracy % (Day 4) [1]: 92.2% | Formulation Appearance (Day 4) [1]: clear solution | Remaining % (Day 4) [1]: 100% | Accuracy % (Day 7) [1]: 91.5% | Formulation Appearance (Day 7) [1]: clear solution | Remaining % (Day 7) [1]: 99.1% | F (Mouse PK (oral); 10 mpk): 82.5% | F (Mouse PK (oral); 30 mpk): 93.8% | Cmax (Mouse PK (oral); C57/B16, 10 mg/kg, 10 mpk): 1320 nM | Cmax (Mouse PK (oral); C57/B16, 30 mg/kg, 30 mpk): 3430 nM | AUC(0-t) (Mouse PK (oral); 10 mg/kg, 10 mpk): 16.4 µM·h | half-life (Mouse PK (oral); 10 mg/kg, 10 mpk): 11.1 h | AUC(0-t) (Mouse PK (oral); 30 mg/kg, 30 mpk): 56 µM·h | half-life (Mouse PK (oral); 30 mg/kg, 30 mpk): 13.3 h | F (Dog PK (oral); 1.5 mpk): 105.0% | F (Dog PK (oral); 4.5 mpk): 88.8% | Cmax (Dog PK (oral); 1.5 mg/kg, 1.5 mpk): 188 nM | Cmax (Dog PK (oral); 4.5 mg/kg, 4.5 mpk): 445 nM | AUC(0-t) (Dog PK (oral); 1.5 mg/kg, 1.5 mpk): 5.28 µM·h | half-life (Dog PK (oral); 1.5 mg/kg, 1.5 mpk): 63.6 h | AUC(0-t) (Dog PK (oral); 4.5 mg/kg, 4.5 mpk): 13.4 µM·h | half-life (Dog PK (oral); 4.5 mg/kg, 4.5 mpk): 48.2 h | half-life at 1 μM (Liver S9 stability assay [2]): > 2.42 h | microsomal CLint at 1 μM (Liver S9 stability assay [2]): < 4.8 µL/min/mg | % Remaining after 60 min incubation (Liver S9 stability assay [2]): 81.8% | half-life at 1 μM (Liver S9 stability assay [3]): > 2.42 h | microsomal CLint at 1 μM (Liver S9 stability assay [3]): < 4.8 µL/min/mg | % Remaining after 60 min incubation (Liver S9 stability assay [3]): 101% | half-life at 1 μM (Liver S9 stability assay [4]): > 2.42 h | microsomal CLint at 1 μM (Liver S9 stability assay [4]): < 4.8 µL/min/mg | % Remaining after 60 min incubation (Liver S9 stability assay [4]): 112% | half-life at 1 μM (Liver S9 stability assay [5]): 2.1 h | microsomal CLint at 1 μM (Liver S9 stability assay [5]): 5.5 µL/min/mg | % Remaining after 60 min incubation (Liver S9 stability assay [5]): 71.5% | half-life at 2 μM ([6]; Dog whole blood): > 2.41 h | % Remaining after 60 min incubation ([6]; Dog whole blood): 97.3% | half-life at 2 μM ([6]; Human whole blood): 8.75 h | % Remaining after 60 min incubation ([6]; Human whole blood): 103% | half-life at 2 μM ([6]; Mouse whole blood): > 2.41 h | % Remaining after 60 min incubation ([6]; Mouse whole blood): 103% | half-life at 2 μM ([6]; Rat whole blood): > 2.41 h | % Remaining after 60 min incubation ([6]; Rat whole blood): 103%
